Experimental data: patent publication US20260083769A1, “2-Aminopropane-1,3-Diol-Capped Cationic Peptoids for Nucleic Acid Delivery” (NUTCRACKER THERAPEUTICS, INC., priority 2022, published 2026)
Like-named read-outs stand apart in the source and are kept apart here. Where a SMILES comes first, the peptide text is derived from it. [ ]: non-standard residue; d: D form. N(2-ethylhexyl)Gly = CCCCC(CC)CNCC(=O)O; Gly(N-dodecyl) = CCCCCCCCCCCCNCC(=O)O; N(CH(CH2OH)2)Gly = O=C(O)CNC(CO)CO; N(octyl)Gly = CCCCCCCCNCC(=O)O; NDecylGly = CCCCCCCCCCNCC(=O)O

What was measured:
[1] = Particle size and polydispersity (PDI) of delivery vehicles by dynamic light scattering; type: physicochemical; details: Table 5; delivery vehicle comprising the peptoid, Formulation D22, fLuc mRNA
Protocol: The resulting delivery vehicle complexes were evaluated by dynamic light scattering (DLS) to determine the volume average particle size/diameter (nm) and the size polydispersity index (PDI) within the delivery vehicle complex.
Particle size. Particle sizes and size distributions were measured using a Wyatt DynaPro® Plate Reader III. In general, formulated samples were diluted to 2 ng/μL in 100 µL PBS. Data is reported as the hydrodynamic diameter (in nm) of the cumulant fit of the correlation function, and the polydispersity of that measurement.
(§1) In one particular instance, the size and polydispersity (PDI) of delivery vehicles was measured by dynamic light scattering in PBS using a DynaPro® plate reader III. The zeta potential of delivery vehicles was determined using Nano-ZS™ particle analyzer. Zeta sample was diluted to 30 uM total lipid in a weakly buffered solution of 10 mM HEPES, 10 mM MES, 10 mM ammonium acetate pH 7. Measurements were collected in duplicate for over 30 run with the voltage manually set to […]

[2] = Percent encapsulated mRNA, RiboGreen assay; type: physicochemical; details: Table 5; delivery vehicle comprising the peptoid, Formulation D22, fLuc mRNA
Protocol: Percent encapsulation. The percentage of mRNA encapsulated within the delivery vehicle complexes containing Fluc mRNA was determined using a modified RiboGreen® assay. In general, formulated mRNA samples were diluted to 500 ng/ml in Tris-EDTA buffer with or without Triton-X™. RiboGreen® (Invitrogen) was added at a 200-fold dilution, and the plate was incubated for 5 minutes. Fluorescence was measured at Ex. […]/Em. 520 nm and encapsulated mRNA was calculated by taking the ratio of fluorescence for non-lysed particles versus lysed particles.
The mRNA concentration and the percentage of encapsulated mRNA were determined using a fluorescence-based Quant-iT™ RiboGreen® RNA Reagent Kit using a literature procedure. To determine the mRNA concentration, delivery vehicles were incubated with 2% Triton™ X-100 for 10 min to release entrapped mRNA, followed by addition of RiboGreen® RNA reagent. The fluorescence intensity of mRNA-RiboGreen® reagent complex (excitation at 485 nm and emission at 530 nm) was detected using a microplate reader. The ratio of fluorescence without and with Triton™ X-100 were used to calculate the percentage of encapsulated mRNA.

[3] = Zeta potential of delivery vehicles; type: physicochemical; details: Table 5; delivery vehicle, pH 7 buffer; in mV (unit assumed)
Protocol: as §1

[4] = Apparent particle pKa, TNS fluorescence assay; type: physicochemical; details: Table 5; apparent particle pKa of delivery vehicle
Protocol: The apparent particle pKa was assessed by a TNS fluorescence assay. Briefly, particles were diluted to 130 uM total lipid in TNS buffer ranging in pH 3-11 for 10 minutes with […] of TNS probe. The fluorescence was measured at room temperature in a plate reader ex 320/em 445. Fluorescence intensity was normalized to the minimal and maximal values and the pKa was determined by a 3 parameter fit to determine the half maximum of the curve.

[5] = RBC hemolysis as metric for fusogenicity; type: cell-based; details: sheep red blood cells (RBCs), 5% v/v, Table 5, delivery vehicle, 37° C. 45 min
Protocol: RBC hemolysis was used as a metric for fusogenicity of LNPs at low pH. […] Particles were diluted to […] total lipid in well with 5% RBC solution and incubated at 37° C. for 45 min. Supernatant was collected and absorbance read on a microplate reader at 425 nm. Fusion was normalized to a fully lysed sample with 2% Triton™ and a buffer-only control. % hemolysis=100*[(ABS T-background)−(ABS sample-background)/(ABS T-background)].

[6] = tested on: BALB/c mice; assay: In vivo fLuc mRNA expression after IV dose, whole body and organ bioluminescence; details: BALB/c mice, IV, luminescence 6 hours after dose, lipid block screen
Description: In one particular instance, peptoids disclosed herein were formulated into delivery vehicles by first dissolving in ethanol along with DSPC, cholesterol, and DMG-PEG2000 at weight ratio of 20:1.8:7.2:1.8 (Formulation D22 in Table 3, above), then mixed with firefly luciferase (fLuc) mRNA dissolved in an aqueous buffer at a volume ratio of 1:3 via microfluidic nanoprecipitation on a turbulent mixing device, resulting in small, low dispersity particles. Physical particle properties were characterized. Delivery vehicles with initial sizes larger than 120 nm were not brought forward into in vivo screening as liver fenestrae primarily accommodate LNPs sized under 100 nm. In vivo expression of delivery vehicles comprising peptoids with varied headgroups was evaluated using fLuc expression in BALB/c mice 6 hours after IV dose (FIG. 1). […] The aminoethyl and aminopropyl headgroups both show preferential expression in lung (FIG. 2), potentially due to the high basicity of the pendant primary amine, as groups with higher pKas are known to accumulate in that organ. […] While spleen and lung selectivity merit further optimization for future therapeutic applications, liver-selective targets were used for further studies herein to prepare for systemic delivery of antibody targets and maximize their serum expression with anti-RSV cargo.
Intravenous administration. The delivery vehicle complexes disclosed herein are effective for in vivo administration of Fluc mRNA to BALB/c mice through multiple routes of administration. In general, delivery system complexes were administered at a dose of 0.5 mg/kg via a tail-vein injection, and the resulting bioluminescence was quantified after 6 hours. Organ-specific bioluminescence was quantified by sacrificing the treated animal, dissecting out the organs of interest, and separately quantifying the resulting bioluminescence
In one particular instance, to investigate how the peptoid lipid block impacts in vivo expression, delivery vehicles with diameter larger than 120 nm were excluded and remaining candidates were administered IV to BALB/c mice. Luminescence was measured after 6 hours and the resulting expression in liver, lung and spleen were quantified. Even without changing the cationic headgroup, luciferase expression spanned 4 orders of magnitude as a result of altering the lipid block in this series. […] In vivo expression of all candidates was then fit to a multi-parameter model containing the 4 input parameters to understand the individual contributions of each factor to overall performance. […] Contour plots of the impact of these factors on expression (all using Ehx as the branched/unsaturated monomer) are shown in FIG. 4.
For imaging studies, female BALB/c mice (6-8 weeks old) were obtained and acclimatized for a minimum of 3 days prior to experiments. The animals were maintained on a 12 hour light cycle in a temperature and humidity controlled room. A daily health check was performed as well as food and water check. For dosing, mice were injected with 2.5 μg fLuc mRNA-containing delivery vehicles intravenously in 100 μL total injection volume. At 6 hours post-injection, mice were anesthetized with isoflurane, and injected intraperitoneally with 30 mg/mL D-luciferin at a dose of 10 μL per gram bodyweight intraperitoneally. Imaging was done 10 minutes post D-luciferin injection using an IVIS® Spectrum Imaging System. Immediately after in vivo imaging, mice were terminally bled by cardiac puncture and euthanized. The organs of interest were harvested, placed in black 24-well plates, and imaged. Living Image® software was used to quantify the total photon flux in regions of interest. For secreted protein studies, mice were injected with aRSV mRNA-containing delivery vehicles intravenously in 100 μL total injection volume. Mice were euthanized after 24 hours, with serum collection at 6 and 24 hours post-injection. […]

[7] = pH 5, read-out: Hemolysis at pH 5
[8] = pH 7, read-out: Hemolysis at pH 7

| SMILES | PDI [1] | Particle Size (nm) [1] [nm] | % Encapsulation [2] [%] | Zeta Potential [3] | pKa (TNS) [4] | hemolysis at 45 min, 150 mM total lipid [5, 7] [%] | hemolysis at 45 min, 150 mM total lipid [5, 8] [%] | fLuc (luciferase) expression in vivo [6] |
| --- | --- | --- | --- | --- | --- | --- | --- | --- |
| CCCCCCCCCCCCN(CC(=O)N(CCCCCCCCCC)CC(N)=O)C(=O)CN(CCCCCCCCCC)C(=O)CN(CCCCCCCCCC)C(=O)CN(CCCCCCCCCCCC)C(=O)CN(CCCCCCCCCC)C(=O)CNC(CO)CO [Compound 27] (H-[N(CH(CH2OH)2)Gly][NDecylGly][Gly(N-dodecyl)][NDecylGly][NDecylGly][Gly(N-dodecyl)][NDecylGly]-NH2) | 0.214 | 107.6 | 87.9 | 1.84 | 5.48 | 12.4 | 9.1 | – |
| CCCCCCCCCCN(CC(=O)N(CC(N)=O)CC(CC)CCCC)C(=O)CN(CCCCCCCC)C(=O)CN(CC(CC)CCCC)C(=O)CN(CCCCCCCCCC)C(=O)CN(CCCCCCCC)C(=O)CNC(CO)CO (stereo not shown) [Compound 28] (H-[N(CH(CH2OH)2)Gly][N(octyl)Gly][NDecylGly][N(2-ethylhexyl)Gly][N(octyl)Gly][NDecylGly][N(2-ethylhexyl)Gly]-NH2) | 0.089 | 86.6 | 82.2 | −5.98 | 5.844 | 15.1 | 5.6 | – |
| CCCCCCCCCCN(CC(=O)N(CCCCCCCCCC)CC(=O)N(CC(=O)N(CCCCCCCCCC)CC(=O)N(CCCCCCCCCC)CC(=O)N(CC(N)=O)CC(CC)CCCC)CC(CC)CCCC)C(=O)CNC(CO)CO (stereo not shown) [Compound 29] (H-[N(CH(CH2OH)2)Gly][NDecylGly][NDecylGly][N(2-ethylhexyl)Gly][NDecylGly][NDecylGly][N(2-ethylhexyl)Gly]-NH2) | 0.094 | 92.7 | 81.9 | −7.04 | 6.044 | 4.8 | 1.3 | – |
| CCCCCCCCCCCCN(CC(=O)N(CCCCCCCCCCCC)CC(=O)N(CC(=O)N(CCCCCCCCCCCC)CC(=O)N(CCCCCCCCCCCC)CC(=O)N(CC(N)=O)CC(CC)CCCC)CC(CC)CCCC)C(=O)CNC(CO)CO (stereo not shown) [Compound 30] (H-[N(CH(CH2OH)2)Gly][Gly(N-dodecyl)][Gly(N-dodecyl)][N(2-ethylhexyl)Gly][Gly(N-dodecyl)][Gly(N-dodecyl)][N(2-ethylhexyl)Gly]-NH2) | 0.097 | 82.6 | 87.7 | −1.41 | 6.084 | 17.3 | 2.1 | – |
| CCCCCCCCCCCCN(CC(=O)N(CCCCCCCCCCCC)CC(=O)N(CCCCCCCC)CC(=O)N(CCCCCCCCCCCC)CC(=O)N(CCCCCCCCCCCC)CC(=O)N(CCCCCCCC)CC(N)=O)C(=O)CNC(CO)CO [Compound 33] (H-[N(CH(CH2OH)2)Gly][Gly(N-dodecyl)][Gly(N-dodecyl)][N(octyl)Gly][Gly(N-dodecyl)][Gly(N-dodecyl)][N(octyl)Gly]-NH2) | 1 | 165.8 | −1.8 | −2.12 | 5.935 | 0.9 | 0.4 | – |

Continued, in another order:

| PDI [1] | Particle Size (nm) [1] [nm] | % Encapsulation [2] [%] | Zeta Potential [3] | pKa (TNS) [4] | SMILES | hemolysis at 45 min, 150 mM total lipid [5, 7] [%] | hemolysis at 45 min, 150 mM total lipid [5, 8] [%] | fLuc (luciferase) expression in vivo [6] |
| --- | --- | --- | --- | --- | --- | --- | --- | --- |
| 0.082 | 90.7 | 76.1 | −5.88 | 5.937 | CCCCCCCCCCCCN(CC(=O)N(CC(N)=O)CC(CC)CCCC)C(=O)CN(CCCCCCCC)C(=O)CN(CC(CC)CCCC)C(=O)CN(CCCCCCCCCCCC)C(=O)CN(CCCCCCCC)C(=O)CNC(CO)CO (stereo not shown) [Compound 35] (H-[N(CH(CH2OH)2)Gly][N(octyl)Gly][Gly(N-dodecyl)][N(2-ethylhexyl)Gly][N(octyl)Gly][Gly(N-dodecyl)][N(2-ethylhexyl)Gly]-NH2) | 4.5 | 5.1 | top expressers |
| Multimodal | 181.4 | 56.4 | −0.676 | 6.418 | CCCCCCCCCCN(CC(N)=O)C(=O)CN(CCCCCCCCCC)C(=O)CN(CCCCCCCCCC)C(=O)CN(CCCCCCCCCC)C(=O)CNC(CO)CO [Compound 37] | 7.8 | 23.9 | – |
| Multimodal | 270.5 | 55.9 | −7.48 | 4.883 | CCCCCCCCCCCCN(CC(N)=O)C(=O)CN(CC(CC)CCCC)C(=O)CN(CCCCCCCCCCCC)C(=O)CN(CCCCCCCCCCCC)C(=O)CN(CC(CC)CCCC)C(=O)CN(CCCCCCCCCCCC)C(=O)CNC(CO)CO (stereo not shown) [Compound 40] (H-[N(CH(CH2OH)2)Gly][Gly(N-dodecyl)][N(2-ethylhexyl)Gly][Gly(N-dodecyl)][Gly(N-dodecyl)][N(2-ethylhexyl)Gly][Gly(N-dodecyl)]-NH2) | 0.5 | -0.1 | – |
| 0.194 | 98.1 | 76.4 | 2.39 | 6.936 | CCCCCCCC/C=C\CCCCCCCCN(CC(=O)N(CCCCCCCC)CC(=O)N(CCCCCCCC/C=C\CCCCCCCC)CC(=O)N(CCCCCCCC)CC(N)=O)C(=O)CNC(CO)CO [Compound 44] | 51.6 | 95.8 | – |
